Assays:
[1] = Partition coefficient, log P of the compound; type: physicochemical; conditions: octanol/water
Haemonchus contortus [2] = assay: Anthelmintic activity against Haemonchus contortus in infected sheep assessed as reduction in faecal egg at 0.05 mg/kg, po; type: functional, Feces; parameters: scale not given: the % may be the effect or the level left
Haemonchus contortus [3] = assay: Anthelmintic activity against Haemonchus contortus in infected sheep assessed as reduction in faecal egg at 0.10 mg/kg, po; type: functional, Feces; parameters: scale not given: the % may be the effect or the level left; conditions: dose 0.1 mg/kg
Haemonchus contortus [4] = assay: Anthelmintic activity against Haemonchus contortus in infected sheep assessed as reduction in faecal egg at 0.25 mg/kg, po; type: functional, Feces; parameters: scale not given: the % may be the effect or the level left

Structure (SMILES)	logP [1]	Activity (Haemonchus contortus [2])	Activity (Haemonchus contortus [3])	Activity (Haemonchus contortus [4])
CCC(C)[C@H]1C(=O)O[C@H](C)C(=O)N(C)[C@@H](C)C(=O)O[C@H](C)C(=O)N(C)[C@@H](C(C)CC)C(=O)O[C@H](C)C(=O)N1C (stereo partly drawn)	3.26	>=95%		
CC[C@@H](C)[C@H]1C(=O)O[C@H](Cc2ccccc2N)C(=O)N(C)[C@@H]([C@H](C)CC)C(=O)O[C@H](C)C(=O)N(C)[C@@H](C)C(=O)O[C@H](C)C(=O)N1C	3.18	>=95%		
CC[C@@H](C)[C@H]1C(=O)O[C@H](Cc2ccc(N3CCOCC3)cc2)C(=O)N(C)[C@@H]([C@H](C)CC)C(=O)O[C@H](C)C(=O)N(C)[C@@H](C)C(=O)O[C@H](C)C(=O)N1C	3.58		>=95%	
CC[C@@H](C)[C@H]1C(=O)O[C@H](Cc2ccccc2)C(=O)N(C)[C@@H]([C@H](C)CC)C(=O)O[C@H](C)C(=O)N(C)[C@@H](C)C(=O)O[C@H](C)C(=O)N1C	4.23			<=50%
CC[C@@H](C)[C@H]1C(=O)O[C@H](Cc2ccc([N+](=O)[O-])cc2)C(=O)N(C)[C@@H]([C@H](C)CC)C(=O)O[C@H](C)C(=O)N(C)[C@@H](C)C(=O)O[C@H](C)C(=O)N1C			50%	

The next lines start with results.

logP [1]	Structure (SMILES)	Activity (Haemonchus contortus [2])	Activity (Haemonchus contortus [3])	Activity (Haemonchus contortus [4])
2.35	CC[C@@H](C)[C@H]1C(=O)O[C@H](Cc2cccc(N)c2)C(=O)N(C)[C@@H]([C@H](C)CC)C(=O)O[C@H](C)C(=O)N(C)[C@@H](C)C(=O)O[C@H](C)C(=O)N1C	>=95%		
2.08	CC[C@@H](C)[C@H]1C(=O)O[C@H](Cc2ccc(N)cc2)C(=O)N(C)[C@@H]([C@H](C)CC)C(=O)O[C@H](C)C(=O)N(C)[C@@H](C)C(=O)O[C@H](C)C(=O)N1C		50%	

— ChEMBL document CHEMBL1145322, “Synthesis and anthelmintic activity of substituted (R)-phenyllactic acid containing cyclohexadepsipeptides” (Bioorg Med Chem Lett, 2006)
